Columns and labels:
Format in all cases: cell-based
[1] = tested on: Staphylococcus aureus (S. aureus); assay: Effect on growth of harmful bacteria (optical density after culture in TSB); conditions: for Effect on reduction in harmful bacteria (in words): Table 7; for Harmful bacteria (S. aureus), average degree of increase or decrease compared to the untreated group: inoculated at a concentration of 1%, rotary culture 37° C. 16 hours
[2] = tested on: Staphylococcus epidermidis (S. epidermidis); assay: Effect on growth of beneficial bacteria (optical density after culture in TSB); conditions: for Effect on increase in beneficial bacteria (in words): Table 7; for Beneficial bacteria (S. epidermidis), average degree of increase or decrease compared to the untreated group: inoculated at a concentration of 1%, rotary culture 37° C. 16 hours
[3] = tested on: human dermal papilla cells; assay: Activity of dermal papilla cells (CCK-8, optical density at 450 nm); conditions: 1 µM, control group
Experimental: In order to identify the effect of the complexes of Preparation Examples on dermal papilla cells, human dermal papilla cells (Promocell, C-12071) in the 4-8 passage were used as a cell line, and follicle dermal papilla cell growth media (Promocell, C-26501) were used as an initial culture medium.
Cells were seeded at a level of 3,000 to 6,000 cells per well in a 96-well plate, and cultured in an incubator at 37° C. in the presence of 5% carbon dioxide for 24 hours. Thereafter, the culture medium was replaced with DMEM medium supplemented with 0.1% fetal bovine serum (FBS) and cultured in an incubator at 37° C. in the presence of 5% carbon dioxide for 24 hours. Thereafter, the culture medium was replaced with DMEM supplemented with 0.1% FBS treated with the complexes according to Preparation Examples 1 to 7 by each concentration, followed by culture in an incubator at 37° C. in the presence of 5% carbon dioxide for 48 hours. After treating 10 µl of CCK-8 solutions per well, culture was performed at 37° C. for 1 hour, and optical density was measured at 450 nm.
The difference between the optical density measurement value and the initial measurement value after 48 hours for each well was standardized by dividing the difference by the initial measurement value for evaluation, and the average value was shown in Table 8 below. 1 µM minoxidil was treated as a control group. […]

[4] = tested on: mouse Raw 264.7 cell line; assay: Suppression of inflammatory factor NO (Griess reagent, LPS-treated cells); conditions: 20 µg/mL, 1 µg/mL LPS, 24 hours, control group
Experimental: In order to identify the effect of the complexes of Preparation Examples on the production of NO as an inflammatory factor in cells, a mouse Raw 264.7 cell line was used, and a culture medium whose final pH was adjusted to 8.5 through addition of NaOH to Complete RPMI (RPMI:FBS:antibiotic = 10:1:0.1) was used as an initial culture medium.
When the Raw 264.7 cells appeared at the top of the culture medium after culture at 37° C. in the presence of 5% carbon dioxide for 24 hours, the cells were seeded in a 24-well plate in which a DMEM culture was prepared, followed by culture at 37° C. in the presence of 5% carbon dioxide for 24 hours. Thereafter, treatment was performed after diluting the complexes according to Preparation Examples 1 to 7 by the following concentrations while replacing the medium with a serum-free DMEM culture medium, followed by additional treatment of 1 µg/mL of LPS. After culture at 37° C. in the presence of 5% carbon dioxide for 24 hours, the supernatant was mixed with Griess reagent (Sigma-Aldrich) in a ratio of 1:1 to evaluate the ability to inhibit NO production with absorbance, and the average value was shown in Table 9 below.
NO production inhibition ability (%) = {1 - (NO production when compound is added / NO production in untreated group)} × 100
20 µg/mL of L-NMMA1 (N^G-Methyl-L-arginine acetate salt), an NO inhibitor, was used as a control group.

human skin fibroblasts = assay: Collagen biosynthesis rate (procollagen type I C-peptide EIA kit); conditions: 10 ng/mL, 48 hours, control group
Experimental: The effect of the complexes of Preparation Examples on the collagen biosynthesis rate in the human skin fibroblasts was identified. Skin fibroblasts were cultured in complete DMEM culture at 37° C. in the presence of 5% carbon dioxide for 72 hours. After seeding in a 24-well plate, culture was performed at 37° C. in the presence of 5% carbon dioxide for 24 hours. After treating the complexes according to Preparation Examples and culturing at 37° C. in the presence of 5% carbon dioxide for 48 hours, only the supernatant was separated, and the collagen synthesis effect was observed by absorbance using a procollagen type I C-peptide (PIP) EIA kit.
Collagen biosynthesis increase rate (%) = {(Absorbance of complex treated group -Absorbance of untreated group) / Absorbance of untreated group} × 100
10 ng/mL of TGF-β, a cytokine, was used as a control group.

Row | Compound | Effect on reduction in harmful bacteria (in words) [1] | Harmful bacteria (S. aureus), average degree of increase or decrease compared to the untreated group [1] [%] | Effect on increase in beneficial bacteria (in words) [2] | Beneficial bacteria (S. epidermidis), average degree of increase or decrease compared to the untreated group [2] [%] | Dermal papilla cell activity, Average (optical density difference after 48 hours divided by initial value) [3] | NO production inhibition ability, Average [4] [%] | Collagen biosynthesis increase rate, Average (human skin fibroblasts) [%]
1 | Inulin | no significant effect | -0.84 | no significant effect | 0.29 | – | – | –
2 | Nc1cc(N2CCCCC2)nc(N)[n+]1[O-] [Minoxidil, minoxidil] | – | – | – | – | 44.2 | – | –
3 | CC(=O)O.CNC(=N)NCCC[C@H](N)C(=O)O [L-NMMA1, N^G-Methyl-L-arginine acetate salt] | – | – | – | – | – | 52.1 | –
4 | TGF-β | – | – | – | – | – | – | 36.6
5 | Beta-glucan | no significant effect | -0.78 | no significant effect | -0.26 | – | – | –
6 | Maltodextrin | no significant effect | 1.43 | no significant effect | 0.14 | – | – | –

Reference: patent US20230338270A1, “COSMETIC COMPOSITION FOR SKIN IMPROVEMENT COMPRISING, AS ACTIVE INGREDIENTS, POLYSACCHARIDES, YEAST EXTRACT, AND STRAIN FERMENTATION PRODUCT WITH CHARACTERISTICS OF PROBIOTICS” (LG HOUSEHOLD & HEALTH CARE LTD., priority 2020, published 2023)
